Results reported in patent publication US3966718A, “7-β-Acylamino-ceph-3-ems and salts and esters therefor” (Beecham Group Limited, priority 1973, dated 1976).
Where a name gives a salt, the structure may show the parent alone. Read-outs that look alike come from different tables or passages of the source.

Experiments:
Assay type in all cases: cell-based
[1] = system: B. subtilis; assay: MIC on (nutrient) agar; settings: Bacillus subtilis, read-out: minimum inhibitory concentration (MIC)
[2] = system: Staph. aureus Oxford; assay: MIC on (nutrient) agar; settings: Staphylococcus aureus, read-out: minimum inhibitory concentration (MIC)
[3] = system: Staph. aureus Russell; assay: MIC on (nutrient) agar; settings: Staphylococcus aureus; Staph. aureus Russell, agar; read-out: minimum inhibitory concentration (MIC)
[4] = system: β-Haemolytic Strep. CN10; assay: MIC on (nutrient) agar; settings: read-out: minimum inhibitory concentration (MIC)
[5] = system: Strep. pneumoniae CN33; assay: MIC on (nutrient) agar; settings: Streptococcus pneumoniae, read-out: minimum inhibitory concentration (MIC)
[6] = system: E. coli NCTC 10418; assay: MIC on nutrient agar; settings: Escherichia coli, NCTC10418; E. coli NCTC 10418, nutrient agar; read-out: minimum inhibitory concentration (MIC)
[7] = system: Salmonella typhi; assay: MIC on nutrient agar; settings: Salmonella enterica, read-out: minimum inhibitory concentration (MIC)
[8] = system: Shigella sonnei; assay: MIC on nutrient agar; settings: read-out: minimum inhibitory concentration (MIC)
[9] = system: Klebsiella aerogenes A; assay: MIC on nutrient agar; settings: read-out: minimum inhibitory concentration (MIC)
[10] = system: Proteus mirabilis C977; assay: MIC on nutrient agar; settings: Proteus mirabilis C977, nutrient agar; read-out: minimum inhibitory concentration (MIC)
[11] = Klebsiella aerogenes A, nutrient agar

Question: What does the source list for `O=C(CSc1ccncc1)N[C@@H]1C(=O)N2C(C(=O)O)=C(Cc3cccnc3)CS[C@H]12` [Example 16, 7β(4-pyridylthioacetamido)-3(3-pyridylmethyl)-3-cephem-4-carboxylic acid di-trifluoroacetic acid salt]?
Answer: MIC ([1]; B. subtilis, agar): < 0.02 µg/mL; MIC [2]: < 0.02 µg/mL; MIC [3]: 1 µg/mL; MIC ([4]; β-Haemolytic Strep. CN10, agar): < 0.02 µg/mL; MIC [5]: < 0.02 µg/mL; MIC [6]: 25 µg/mL; MIC [7]: 10 µg/mL; MIC [8]: 25 µg/mL; MIC [9, 11]: 5 µg/mL; MIC [10]: 100 µg/mL

Question: What does the source list for `N[C@@H](C(=O)N[C@@H]1C(=O)N2C(C(=O)O)=C(Cc3cccnc3)CS[C@H]12)c1ccc(O)cc1` [Example 13, 7-(2-Amino-2-p-hydroxyphenylacetamido)-4-carboxy-3-(3-pyridylmethyl) ceph-3-em bis-trifluoroacetic acid salt]?
Answer: MIC ([1]; B. subtilis, agar): 0.25 µg/mL; MIC [2]: 0.25 µg/mL; MIC [3]: 2.5 µg/mL; MIC ([4]; β-Haemolytic Strep. CN10, agar): 0.12 µg/mL; MIC [5]: 0.12 µg/mL; MIC [6]: 5 µg/mL; MIC [7]: 1.25 µg/mL; MIC [8]: 5 µg/mL; MIC ([9]; Klebsiella aerogenes): 1.25 µg/mL; MIC [10]: 5 µg/mL

Question: How did the MIC ([1]; B. subtilis, agar) turn out when `O=C(Cc1cccs1)N[C@@H]1C(=O)N2C(C(=O)O)=C(Cc3cccnc3)CS[C@H]12` [Example 1, 3-(3-pyridylmethyl)-7β-(2-thienylacetamido)-3-cephem-4-carboxylic acid trifluoroacetate salt] was run?
Answer: The MIC was 0.25 µg/mL.

Question: What about the MIC [2] of the same compound?
Answer: The MIC was 0.05 µg/mL.

Question: What about the MIC [3] of the same compound?
Answer: Its MIC is 10 µg/mL.

Question: And the MIC ([4]; β-Haemolytic Strep. CN10, agar)?
Answer: Its MIC is 0.1 µg/mL.

Question: What about the MIC [5] of the same compound?
Answer: The MIC was 0.1 µg/mL.

Question: For `O=C(COc1ccccc1)N[C@@H]1C(=O)N2C(C(=O)O)=C(Cc3cccnc3)CS[C@H]12` [Example 9, 7β-phenoxyacetamido-3(3-pyridylmethyl)-3-cephem-4-carboxylic acid trifluoroacetic acid salt], which MIC ([1]; B. subtilis, agar) is on record?
Answer: The MIC was 0.25 µg/mL.

Question: And the MIC [2]?
Answer: Its MIC is 0.02 µg/mL.

Question: What about the MIC [3] of the same compound?
Answer: Its MIC is 0.12 µg/mL.

Question: What about the MIC ([4]; β-Haemolytic Strep. CN10, agar) of the same compound?
Answer: The MIC was 0.12 µg/mL.

Question: What about the MIC [5] of the same compound?
Answer: The MIC was 0.12 µg/mL.

Question: And the MIC [6]?
Answer: Its MIC is 500 µg/mL.

Question: And the MIC [7]?
Answer: Its MIC is 500 µg/mL.

Question: What about the MIC [8] of the same compound?
Answer: The MIC was 500 µg/mL.

Question: And the MIC [9, 11]?
Answer: The MIC was 500 µg/mL.

Question: What about the MIC [10] of the same compound?
Answer: The MIC was 125 µg/mL.

Question: `C[n+]1cccc(CC2=C(C(=O)O)N3C(=O)[C@@H](NC(=O)[C@H](N)c4ccccc4)[C@H]3SC2)c1` [Example 12, 7β(Dα-aminophenylacetamido)-3(3-pyridylmethyl)-3-cephem-4-carboxylic acid metho-trifluoroacetate trifluoroacetic acid salt] was tested. Which MIC ([1]; B. subtilis, agar) did it give?
Answer: Its MIC is 0.5 µg/mL.

Question: And the MIC [2]?
Answer: Its MIC is 0.25 µg/mL.

Question: And the MIC [3]?
Answer: Its MIC is 12.5 µg/mL.

Question: What about the MIC ([4]; β-Haemolytic Strep. CN10, agar) of the same compound?
Answer: The MIC was 0.05 µg/mL.

Question: What about the MIC [5] of the same compound?
Answer: The MIC was 0.25 µg/mL.

Question: And the MIC [6]?
Answer: Its MIC is 50 µg/mL.

Question: And the MIC [7]?
Answer: The MIC was 50 µg/mL.

Question: What about the MIC [8] of the same compound?
Answer: Its MIC is 50 µg/mL.

Question: And the MIC [9, 11]?
Answer: The MIC was 50 µg/mL.

Question: And the MIC [10]?
Answer: Its MIC is 125 µg/mL.

Question: Which results are given for `O=C(O)C(F)(F)F.O=C(O)C1=C(Cc2cccnc2)CS[C@@H]2[C@H](NC(=O)C(C(=O)Oc3ccccc3)c3ccccc3)C(=O)N12` (stereo partly drawn) [Example 6, 7β(α-phenoxycarbonylphenylacetamido)-3(3-pyridylmethyl)-3-cephem-4-carboxylic acid trifluoroacetate]?
Answer: MIC [1]: 12.5 µg/mL; MIC [2]: 5 µg/mL; MIC [3]: 25 µg/mL; MIC [4]: 12.5 µg/mL; MIC [6]: 50 µg/mL; MIC [7]: 125 µg/mL; MIC [8]: 12.5 µg/mL; MIC [10]: 25 µg/mL

Question: For `O=C(O)CSCC(=O)N[C@@H]1C(=O)N2C(C(=O)O)=C(Cc3cccnc3)CS[C@H]12` [Example 14, 4-Carboxy-7-carboxymethylthioacetamido-3-(3-pyridylmethyl)ceph-3-em trifluoroacetic acid salt], which MIC ([1]; B. subtilis, agar) is on record?
Answer: Its MIC is 25 µg/mL.

Question: And the MIC [2]?
Answer: The MIC was 1.25 µg/mL.

Question: What about the MIC [3] of the same compound?
Answer: Its MIC is 12.5 µg/mL.

Question: What about the MIC ([4]; β-Haemolytic Strep. CN10, agar) of the same compound?
Answer: The MIC was 5 µg/mL.

Question: What about the MIC [5] of the same compound?
Answer: The MIC was 12.5 µg/mL.

Question: And the MIC [6]?
Answer: Its MIC is 50 µg/mL.

Question: What about the MIC [7] of the same compound?
Answer: Its MIC is 50 µg/mL.

Question: What about the MIC [8] of the same compound?
Answer: Its MIC is 50 µg/mL.

Question: What about the MIC [9, 11] of the same compound?
Answer: Its MIC is 25 µg/mL.

Question: What about the MIC [10] of the same compound?
Answer: The MIC was 50 µg/mL.
